Laboratory results taken from ChEMBL document CHEMBL6078630, “Design, synthesis, and bioactivity investigation of novel cyclic lipopeptide antibiotics targeting top-priority multidrug-resistant gram-negative bacteria” (Eur J Med Chem, 2024).
≈ marks a conversion by molar mass, not a printed value. Bridge positions count the residues as written; N and C are the ends. Square brackets hold non-standard residues; d marks the D form. Peptide text beside a SMILES is read from it. * marks the point of attachment. Heptanoyl(6-Me) = CC(C)CCCCC(=O)*; dNle = CCCC[C@@H](N)C(=O)O; dOrn = NCCC[C@@H](N)C(=O)O; Octanoyl = CCCCCCCC(=O)*; Orn = NCCC[C@H](N)C(=O)O; Dab = NCC[C@H](N)C(=O)O; Dap = NC[C@H](N)C(=O)O

What was measured:
Escherichia coli [1] = assay: Antibacterial activity against carbapenem-resistant Escherichia coli ATCC BAA-2340 assessed as inhibition of bacterial growth incubated for 16 to 20 hrs by CLSI protocol based broth microdilution method; type: functional; settings: time 16-20 hrs
Escherichia coli [2] = assay: Antibacterial activity against Escherichia coli ATCC BAA-2523 assessed as inhibition of bacterial growth incubated for 16 to 20 hrs by CLSI protocol based broth microdilution method; type: functional; settings: time 16-20 hrs
Pseudomonas aeruginosa [3] = assay: Antibacterial activity against Pseudomonas aeruginosa ATCC 27853 assessed as inhibition of bacterial growth incubated for 16 to 20 hrs by CLSI protocol based broth microdilution method; type: functional; settings: time 16-20 hrs
Pseudomonas aeruginosa [4] = assay: Antibacterial activity against carbapenem-resistant Pseudomonas aeruginosa clinical isolate 19-3 assessed as inhibition of bacterial growth incubated for 16 to 20 hrs by CLSI protocol based broth microdilution method; type: functional; settings: time 16-20 hrs
Acinetobacter baumannii [5] = assay: Antibacterial activity against carbapenem-sensitive Acinetobacter baumannii clinical isolate 19-1 assessed as inhibition of bacterial growth incubated for 16 to 20 hrs by CLSI protocol based broth microdilution method; type: functional; settings: time 16-20 hrs
[6] = Renal cytotoxicity against HK-2 cells incubated for 72 hrs by CCK8 assay; type: toxicity, cell-based; settings: human
Klebsiella pneumoniae [7] = assay: Antibacterial activity against carbapenem-resistant Klebsiella pneumoniae clinical isolate KPN+19-15 assessed as inhibition of bacterial growth incubated for 16 to 20 hrs by CLSI protocol based broth microdilution method; type: functional; settings: time 16-20 hrs
Acinetobacter baumannii [8] = assay: Antibacterial activity against Acinetobacter baumannii NCTC 13304 (OXA-27) assessed as inhibition of bacterial growth incubated for 16 to 20 hrs by CLSI protocol based broth microdilution method; type: functional; settings: time 16-20 hrs
Klebsiella pneumoniae [9] = assay: Antibacterial activity against carbapenem-resistant Klebsiella pneumoniae ATCC BAA-1705 assessed as inhibition of bacterial growth incubated for 16 to 20 hrs by CLSI protocol based broth microdilution method; type: functional; settings: time 16-20 hrs

Structure (SMILES) | MIC (Escherichia coli [1]) [µg/mL] | MIC (Escherichia coli [2]) [µg/mL] | MIC (Pseudomonas aeruginosa [3]) [µg/mL] | MIC (Pseudomonas aeruginosa [4]) [µg/mL] | MIC (Acinetobacter baumannii [5]) [µg/mL] | IC50 at 72 h [6] [µg/mL] | MIC (Klebsiella pneumoniae [7]) [µg/mL] | MIC (Acinetobacter baumannii [8]) [µg/mL] | MIC (Klebsiella pneumoniae [9]) [µg/mL]
CC(C)CCCCC(=O)N[C@@H](CCN)C(=O)N[C@H](C(=O)N[C@H](CO)C(=O)N[C@H]1CCNC(=O)[C@H]([C@@H](C)O)NC(=O)[C@H](CN)NC(=O)[C@H](CCN)NC(=O)[C@H]([C@@H](C)O)NC(=O)[C@@H](Cc2ccccc2)NC(=O)[C@H](CCN)NC1=O)[C@@H](C)O ({Heptanoyl(6-Me)}-[Dab]T[dS][Dab][Dab][dF]T[Dab][Dap]T; lactam 4-C) | ≤ 0.03 | ≤ 0.03 | 8 (≈ 6.95 µM) | 8 (≈ 6.95 µM) | 0.06 (≈ 0.0522 µM) | > 500 | ≤ 0.03 | ≤ 0.03 | 0.06 (≈ 0.0522 µM)
CCCCCCCC(=O)N[C@@H](CCN)C(=O)N[C@H](C(=O)N[C@@H](CCN)C(=O)N[C@H]1CCNC(=O)[C@H]([C@@H](C)O)NC(=O)[C@H](CCN)NC(=O)[C@H](CCN)NC(=O)[C@H]([C@@H](C)O)NC(=O)[C@@H](Cc2ccccc2)NC(=O)[C@H](CCN)NC1=O)[C@@H](C)O (Octanoyl-[Dab]T[Dab][Dab][Dab][dF]T[Dab][Dab]T; lactam 4-C) [listing 1 of 2 here] | 0.06 (≈ 0.051 µM) | ≤ 0.03 | 0.5 (≈ 0.425 µM) | 0.5 (≈ 0.425 µM) | 0.5 (≈ 0.425 µM) |  | ≤ 0.03 | 0.25 (≈ 0.212 µM) | 0.5 (≈ 0.425 µM)
CC(C)CCCCC(=O)N[C@@H](CCN)C(=O)N[C@H](C(=O)N[C@H](CO)C(=O)N[C@H]1CCNC(=O)[C@H]([C@@H](C)O)NC(=O)[C@H](CCN)NC(=O)[C@H](CCN)NC(=O)[C@H]([C@@H](C)O)NC(=O)[C@@H](Cc2ccccc2)NC(=O)[C@H](CCCN)NC1=O)[C@@H](C)O ({Heptanoyl(6-Me)}-[Dab]T[dS][Dab][Orn][dF]T[Dab][Dab]T; lactam 4-C) | 4 (≈ 3.39 µM) | 8 (≈ 6.79 µM) | > 64 | > 64 | > 64 | > 500 | 64 (≈ 54.3 µM) | 64 (≈ 54.3 µM) | 8 (≈ 6.79 µM)
CC(C)C[C@@H]1NC(=O)[C@H](CCN)NC(=O)[C@@H](NC(=O)[C@@H](CO)NC(=O)[C@@H](NC(=O)[C@H](CCN)NC(=O)CCCCCCC(=O)O)[C@@H](C)O)CCNC(=O)[C@H]([C@@H](C)O)NC(=O)[C@H](CCN)NC(=O)[C@H](CCN)NC(=O)[C@H]([C@@H](C)O)NC1=O | 0.125 (≈ 0.108 µM) | 0.125 (≈ 0.108 µM) | 8 (≈ 6.89 µM) | 8 (≈ 6.89 µM) | 0.5 (≈ 0.431 µM) | > 500 | 0.25 (≈ 0.215 µM) | 0.25 (≈ 0.215 µM) | 0.5 (≈ 0.431 µM)
CC(C)CCCCC(=O)N[C@@H](CCN)C(=O)N[C@H](C(=O)N[C@H](CCCN)C(=O)N[C@H]1CCNC(=O)[C@H]([C@@H](C)O)NC(=O)[C@H](CCN)NC(=O)[C@H](CCN)NC(=O)[C@H]([C@@H](C)O)NC(=O)[C@@H](Cc2ccccc2)NC(=O)[C@H](CCN)NC1=O)[C@@H](C)O ({Heptanoyl(6-Me)}-[Dab]T[dOrn][Dab][Dab][dF]T[Dab][Dab]T; lactam 4-C) | ≤ 0.03 | ≤ 0.03 | 0.25 (≈ 0.21 µM) | 1 (≈ 0.839 µM) | 0.125 (≈ 0.105 µM) | > 500 | 0.125 (≈ 0.105 µM) | 0.06 (≈ 0.0504 µM) | 0.06 (≈ 0.0504 µM)
CC(C)CCCCC(=O)N[C@@H](CCN)C(=O)N[C@H](C(=O)N[C@@H](CCN)C(=O)N[C@H]1CCNC(=O)[C@H]([C@@H](C)O)NC(=O)[C@H](CCN)NC(=O)[C@H](CCN)NC(=O)[C@H]([C@@H](C)O)NC(=O)[C@@H](Cc2ccccc2)NC(=O)[C@H](CCN)NC1=O)[C@@H](C)O ({Heptanoyl(6-Me)}-[Dab]T[Dab][Dab][Dab][dF]T[Dab][Dab]T; lactam 4-C) [listing 1 of 2 here] | ≤ 0.03 | 0.06 (≈ 0.051 µM) | 1 (≈ 0.849 µM) | 1 (≈ 0.849 µM) | 0.5 (≈ 0.425 µM) |  | ≤ 0.03 | 0.25 (≈ 0.212 µM) | 0.5 (≈ 0.425 µM)
CC(C)CCCCC(=O)N[C@@H](CCCN)C(=O)N[C@H](C(=O)N[C@H](CO)C(=O)N[C@H]1CCNC(=O)[C@H]([C@@H](C)O)NC(=O)[C@H](CCN)NC(=O)[C@H](CCN)NC(=O)[C@H]([C@@H](C)O)NC(=O)[C@@H](Cc2ccccc2)NC(=O)[C@H](CCN)NC1=O)[C@@H](C)O ({Heptanoyl(6-Me)}-[Orn]T[dS][Dab][Dab][dF]T[Dab][Dab]T; lactam 4-C) | 0.25 (≈ 0.212 µM) | 0.25 (≈ 0.212 µM) | > 64 | 64 (≈ 54.3 µM) | 4 (≈ 3.39 µM) | > 500 | 0.5 (≈ 0.424 µM) | 4 (≈ 3.39 µM) | 0.5 (≈ 0.424 µM)
CCCCCCCC(=O)N[C@@H](CCN)C(=O)N[C@H](C(=O)N[C@@H](CCN)C(=O)N[C@H]1CCNC(=O)[C@H]([C@@H](C)O)NC(=O)[C@H](CCN)NC(=O)[C@H](CCN)NC(=O)[C@H]([C@@H](C)O)NC(=O)[C@@H](CCC)NC(=O)[C@H](CCN)NC1=O)[C@@H](C)O [listing 1 of 2 here] |  |  |  |  |  | > 500 |  |  | 
CC(C)CCCCC(=O)N[C@@H](CCN)C(=O)N[C@H](C(=O)N[C@@H](CCN)C(=O)N[C@H]1CCNC(=O)[C@H]([C@@H](C)O)NC(=O)[C@H](CCN)NC(=O)[C@H](CCN)NC(=O)[C@H]([C@@H](C)O)NC(=O)[C@@H](Cc2ccccc2)NC(=O)[C@H](CCN)NC1=O)[C@@H](C)O ({Heptanoyl(6-Me)}-[Dab]T[Dab][Dab][Dab][dF]T[Dab][Dab]T; lactam 4-C) [listing 2 of 2 here] |  |  |  |  |  | > 500 |  |  | 
CCCCCCCC(=O)N[C@@H](CCN)C(=O)N[C@H](C(=O)N[C@@H](CCN)C(=O)N[C@H]1CCNC(=O)[C@H]([C@@H](C)O)NC(=O)[C@H](CCN)NC(=O)[C@H](CCN)NC(=O)[C@H]([C@@H](C)O)NC(=O)[C@@H](Cc2ccccc2)NC(=O)[C@H](CCN)NC1=O)[C@@H](C)O (Octanoyl-[Dab]T[Dab][Dab][Dab][dF]T[Dab][Dab]T; lactam 4-C) [listing 2 of 2 here] |  |  |  |  |  | > 500 |  |  | 
CCCCCCCC(=O)N[C@@H](CCN)C(=O)N[C@H](C(=O)N[C@@H](CCN)C(=O)N[C@H]1CCNC(=O)[C@H]([C@@H](C)O)NC(=O)[C@H](CCN)NC(=O)[C@H](CCN)NC(=O)[C@H]([C@@H](C)O)NC(=O)[C@@H](CCCC)NC(=O)[C@H](CCN)NC1=O)[C@@H](C)O (Octanoyl-[Dab]T[Dab][Dab][Dab][dNle]T[Dab][Dab]T; lactam 4-C) [listing 1 of 2 here] | 0.125 (≈ 0.109 µM) | 0.125 (≈ 0.109 µM) | 1 (≈ 0.875 µM) | 1 (≈ 0.875 µM) | 1 (≈ 0.875 µM) |  | 0.125 (≈ 0.109 µM) | 1 (≈ 0.875 µM) | 2 (≈ 1.75 µM)
CCCCCCCC(=O)N[C@@H](CCN)C(=O)N[C@H](C(=O)N[C@@H](CCN)C(=O)N[C@H]1CCNC(=O)[C@H]([C@@H](C)O)NC(=O)[C@H](CCN)NC(=O)[C@H](CCN)NC(=O)[C@H]([C@@H](C)O)NC(=O)[C@@H](CCC)NC(=O)[C@H](CCN)NC1=O)[C@@H](C)O [listing 2 of 2 here] | 0.5 (≈ 0.443 µM) | 0.25 (≈ 0.221 µM) | 1 (≈ 0.885 µM) | 1 (≈ 0.885 µM) | 4 (≈ 3.54 µM) |  | 0.5 (≈ 0.443 µM) | 4 (≈ 3.54 µM) | 2 (≈ 1.77 µM)
CCCCCCCC(=O)N[C@@H](CCN)C(=O)N[C@H](C(=O)N[C@@H](CCN)C(=O)N[C@H]1CCNC(=O)[C@H]([C@@H](C)O)NC(=O)[C@H](CCN)NC(=O)[C@H](CCN)NC(=O)[C@H]([C@@H](C)O)NC(=O)[C@@H](CC(C)C)NC(=O)[C@H](CCN)NC1=O)[C@@H](C)O (Octanoyl-[Dab]T[Dab][Dab][Dab][dL]T[Dab][Dab]T; lactam 4-C) [listing 1 of 2 here] |  |  |  |  |  | > 500 |  |  | 
CCCCCCCC(=O)N[C@@H](CCN)C(=O)N[C@H](C(=O)N[C@@H](CCN)C(=O)N[C@H]1CCNC(=O)[C@H]([C@@H](C)O)NC(=O)[C@H](CCN)NC(=O)[C@H](CCN)NC(=O)[C@H]([C@@H](C)O)NC(=O)[C@@H](CC(C)C)NC(=O)[C@H](CCN)NC1=O)[C@@H](C)O (Octanoyl-[Dab]T[Dab][Dab][Dab][dL]T[Dab][Dab]T; lactam 4-C) [listing 2 of 2 here] | 0.06 (≈ 0.0525 µM) | 0.25 (≈ 0.219 µM) | 1 (≈ 0.875 µM) | 0.5 (≈ 0.437 µM) | 1 (≈ 0.875 µM) |  | 0.25 (≈ 0.219 µM) | 1 (≈ 0.875 µM) | 2 (≈ 1.75 µM)
CCCCCCCC(=O)N[C@@H](CCN)C(=O)N[C@H](C(=O)N[C@@H](CCN)C(=O)N[C@H]1CCNC(=O)[C@H]([C@@H](C)O)NC(=O)[C@H](CCN)NC(=O)[C@H](CCN)NC(=O)[C@H]([C@@H](C)O)NC(=O)[C@@H](CCCC)NC(=O)[C@H](CCN)NC1=O)[C@@H](C)O (Octanoyl-[Dab]T[Dab][Dab][Dab][dNle]T[Dab][Dab]T; lactam 4-C) [listing 2 of 2 here] |  |  |  |  |  | > 500 |  |  | 
